According to ChEMBL document CHEMBL3885881, “DrugMatrix”:

Species: Rattus norvegicus
Test: DrugMatrix - Regimen: Daily Repeat
Format: toxicity, organism-based, Sprague-Dawley
Parameters: regimen Daily Repeat, gender Male, age 6-8 weeks
Details: in vivo, 0 mg/kg, dose level Control; for ABSOLUTE BASOPHIL / ABSOLUTE EOSINOPHIL / ABSOLUTE LYMPHOCYTE / ABSOLUTE MONOCYTE / ABSOLUTE SEGMENTED NEUTROPHIL / BASOPHIL / EOSINOPHIL / ERYTHROCYTE COUNT / HEMATOCRIT / HEMOGLOBIN / LEUKOCYTE COUNT / LYMPHOCYTE / MEAN CORPUSCULAR HEMOGLOBIN / MEAN CORPUSCULAR VOLUME / MONOCYTE / NEUTROPHIL / NUCLEATED RED BLOOD CELLS / PLATELET COUNT: tissue Blood; for ALANINE AMINOTRANSFERASE / ALBUMIN / ALKALINE PHOSPHATASE / ASPARTATE AMINOTRANSFERASE / BLOOD UREA NITROGEN / CARBON DIOXIDE / CHLORIDE / CHOLESTEROL / CREATINE PHOSPHOKINASE / CREATININE / GLUCOSE / LACTATE DEHYDROGENASE / LIPASE / PHOSPHORUS / POTASSIUM / SODIUM / TOTAL BILIRUBIN / TOTAL PROTEIN / URIC ACID: tissue Plasma
[1] = po, 72 h, route oral GAVAGE, time 3 day, vehicle 100 % WATER
[2] = po, 120 h, route oral GAVAGE, time 5 day, vehicle 100 % WATER
[3] = sc, 72 h, route subcutaneous, time 3 day, […]
[4] = sc, 120 h, route subcutaneous, time 5 day, […]

CC(C)(C)CC(C)(C)c1ccc(OCCOCC[N+](C)(C)Cc2ccccc2)cc1.[Cl-] [BENZETHONIUM CHLORIDE]
ABSOLUTE BASOPHIL [1]: 0 CELLS/uL | ABSOLUTE EOSINOPHIL [1]: 20.17 CELLS/uL | ABSOLUTE LYMPHOCYTE [1]: 12371.67 CELLS/uL | ABSOLUTE MONOCYTE [1]: 166 CELLS/uL | ABSOLUTE SEGMENTED NEUTROPHIL [1]: 1292.17 CELLS/uL | BASOPHIL [1]: 0% | EOSINOPHIL [1]: 0.17% | ERYTHROCYTE COUNT [1]: 5.46 x10E6/uL | HEMATOCRIT [1]: 34.38% | HEMOGLOBIN [1]: 13.32 G/DL | LEUKOCYTE COUNT [1]: 13.85 x10E3/uL | LYMPHOCYTE [1]: 88.5% | MEAN CORPUSCULAR HEMOGLOBIN [1]: 24.42 pg | MEAN CORPUSCULAR VOLUME [1]: 63.07 fL | MONOCYTE [1]: 1.17% | NEUTROPHIL [1]: 10.17% | NUCLEATED RED BLOOD CELLS [1]: 0.17 /100WBC | PLATELET COUNT [1]: 1193.5 x10E3/uL | ALANINE AMINOTRANSFERASE [1]: 54.5 u/L | ALBUMIN [1]: 4.02 G/DL | ALKALINE PHOSPHATASE [1]: 346.5 u/L | ASPARTATE AMINOTRANSFERASE [1]: 103.17 u/L | BLOOD UREA NITROGEN [1]: 16.5 mg/dL | CARBON DIOXIDE [1]: 29.83 mmol/L | CHLORIDE [1]: 99.5 MEQ/L | CHOLESTEROL [1]: 72.5 mg/dL | CREATINE PHOSPHOKINASE [1]: 532.5 u/L | CREATININE [1]: 0.18 mg/dL | GLUCOSE [1]: 168.5 mg/dL | LACTATE DEHYDROGENASE [1]: 536.5 u/L | LIPASE [1]: 11.17 u/L | PHOSPHORUS [1]: 11.48 mg/dL | POTASSIUM [1]: 5.95 MEQ/L | SODIUM [1]: 140.5 MEQ/L | TOTAL BILIRUBIN [1]: 0.18 mg/dL | TOTAL PROTEIN [1]: 5.77 G/DL | URIC ACID [1]: 1.42 mg/dL | ABSOLUTE BASOPHIL [2]: 0 CELLS/uL | ABSOLUTE EOSINOPHIL [2]: 22.83 CELLS/uL | ABSOLUTE LYMPHOCYTE [2]: 12202.83 CELLS/uL | ABSOLUTE MONOCYTE [2]: 158 CELLS/uL | ABSOLUTE SEGMENTED NEUTROPHIL [2]: 1283 CELLS/uL | BASOPHIL [2]: 0% | EOSINOPHIL [2]: 0.17% | ERYTHROCYTE COUNT [2]: 5.88 x10E6/uL | HEMATOCRIT [2]: 36.62% | HEMOGLOBIN [2]: 14.07 G/DL | LEUKOCYTE COUNT [2]: 13.67 x10E3/uL | LYMPHOCYTE [2]: 89.5% | MEAN CORPUSCULAR HEMOGLOBIN [2]: 23.95 pg | MEAN CORPUSCULAR VOLUME [2]: 62.28 fL | MONOCYTE [2]: 1.17% | NEUTROPHIL [2]: 9.17% | NUCLEATED RED BLOOD CELLS [2]: 0.17 /100WBC | PLATELET COUNT [2]: 1198 x10E3/uL | ALANINE AMINOTRANSFERASE [2]: 51 u/L | ALBUMIN [2]: 4.3 G/DL | ALKALINE PHOSPHATASE [2]: 343 u/L | ASPARTATE AMINOTRANSFERASE [2]: 89.83 u/L | BLOOD UREA NITROGEN [2]: 17.67 mg/dL | CARBON DIOXIDE [2]: 27.17 mmol/L | CHLORIDE [2]: 98.33 MEQ/L | CHOLESTEROL [2]: 82.5 mg/dL | CREATINE PHOSPHOKINASE [2]: 533.33 u/L | CREATININE [2]: 0.18 mg/dL | GLUCOSE [2]: 152.67 mg/dL | LACTATE DEHYDROGENASE [2]: 220.33 u/L | LIPASE [2]: 11.5 u/L | PHOSPHORUS [2]: 11.25 mg/dL | POTASSIUM [2]: 6.29 MEQ/L | SODIUM [2]: 140.53 MEQ/L | TOTAL BILIRUBIN [2]: 0.22 mg/dL | TOTAL PROTEIN [2]: 6.12 G/DL | URIC ACID [2]: 1.42 mg/dL | ABSOLUTE BASOPHIL [3]: 0 CELLS/uL | ABSOLUTE EOSINOPHIL [3]: 92.33 CELLS/uL | ABSOLUTE LYMPHOCYTE [3]: 12247.5 CELLS/uL | ABSOLUTE MONOCYTE [3]: 389.67 CELLS/uL | ABSOLUTE SEGMENTED NEUTROPHIL [3]: 1320.5 CELLS/uL | BASOPHIL [3]: 0% | EOSINOPHIL [3]: 0.67% | ERYTHROCYTE COUNT [3]: 5.45 x10E6/uL | HEMATOCRIT [3]: 34.85% | HEMOGLOBIN [3]: 12.97 G/DL | LEUKOCYTE COUNT [3]: 14.05 x10E3/uL | LYMPHOCYTE [3]: 87.33% | MEAN CORPUSCULAR HEMOGLOBIN [3]: 23.78 pg | MEAN CORPUSCULAR VOLUME [3]: 63.93 fL | MONOCYTE [3]: 2.67% | NEUTROPHIL [3]: 9.33% | NUCLEATED RED BLOOD CELLS [3]: 0 /100WBC | PLATELET COUNT [3]: 1174 x10E3/uL | ALANINE AMINOTRANSFERASE [3]: 48.83 u/L | ALBUMIN [3]: 4.23 G/DL | ALKALINE PHOSPHATASE [3]: 351.5 u/L | ASPARTATE AMINOTRANSFERASE [3]: 90 u/L | BLOOD UREA NITROGEN [3]: 15.33 mg/dL | CARBON DIOXIDE [3]: 23 mmol/L | CHLORIDE [3]: 103.5 MEQ/L | CHOLESTEROL [3]: 70.5 mg/dL | CREATINE PHOSPHOKINASE [3]: 651.83 u/L | CREATININE [3]: 0.22 mg/dL | GLUCOSE [3]: 180.67 mg/dL | LACTATE DEHYDROGENASE [3]: 165 u/L | LIPASE [3]: 9.33 u/L | PHOSPHORUS [3]: 12.03 mg/dL | POTASSIUM [3]: 6.17 MEQ/L | SODIUM [3]: 142.62 MEQ/L | TOTAL BILIRUBIN [3]: 0.2 mg/dL | TOTAL PROTEIN [3]: 5.73 G/DL | URIC ACID [3]: 1.77 mg/dL | ABSOLUTE BASOPHIL [4]: 0 CELLS/uL | ABSOLUTE EOSINOPHIL [4]: 0 CELLS/uL | ABSOLUTE LYMPHOCYTE [4]: 12736.67 CELLS/uL | ABSOLUTE MONOCYTE [4]: 253.5 CELLS/uL | ABSOLUTE SEGMENTED NEUTROPHIL [4]: 1193.17 CELLS/uL | BASOPHIL [4]: 0% | EOSINOPHIL [4]: 0% | ERYTHROCYTE COUNT [4]: 5.72 x10E6/uL | HEMATOCRIT [4]: 36.05% | HEMOGLOBIN [4]: 13.62 G/DL | LEUKOCYTE COUNT [4]: 14.18 x10E3/uL | LYMPHOCYTE [4]: 89.33% | MEAN CORPUSCULAR HEMOGLOBIN [4]: 23.83 pg | MEAN CORPUSCULAR VOLUME [4]: 63.05 fL | MONOCYTE [4]: 1.83% | NEUTROPHIL [4]: 8.83% | NUCLEATED RED BLOOD CELLS [4]: 0 /100WBC | PLATELET COUNT [4]: 1322.17 x10E3/uL | ALANINE AMINOTRANSFERASE [4]: 48.83 u/L | ALBUMIN [4]: 4.27 G/DL | ALKALINE PHOSPHATASE [4]: 295.17 u/L | ASPARTATE AMINOTRANSFERASE [4]: 75.83 u/L | BLOOD UREA NITROGEN [4]: 15.5 mg/dL | CARBON DIOXIDE [4]: 30.5 mmol/L | CHLORIDE [4]: 102.33 MEQ/L | CHOLESTEROL [4]: 76.17 mg/dL | CREATINE PHOSPHOKINASE [4]: 205.5 u/L | CREATININE [4]: 0.2 mg/dL | GLUCOSE [4]: 149.67 mg/dL | LACTATE DEHYDROGENASE [4]: 124.5 u/L | LIPASE [4]: 10 u/L | PHOSPHORUS [4]: 10.93 mg/dL | POTASSIUM [4]: 6.59 MEQ/L | SODIUM [4]: 143.1 MEQ/L | TOTAL BILIRUBIN [4]: 0.2 mg/dL | TOTAL PROTEIN [4]: 6.05 G/DL | URIC ACID [4]: 1.45 mg/dL
